# Experimental data published in patent US10569270B2, “Screening kit and method” (CELLPLY S.R.L., priority 2016, dated 2020).
# Experiments:
# [1] = tested on: Jurkat cells; experiment: calcium signal (Fluo-4) of Jurkat cells in open microwells after stimulation; assay type: cell-based, human; details: Fluo-4 labeled Jurkat cells
# Experimental: Cells from the Jurkat cell line (human Leukemic T cells) were obtained from ATCC and cultured in RPMI 1640 medium supplemented with 10% inactivated FBS medium, 10 mM Hepes, 2 mM Ultraglutamine and 1 mM sodium pyruvate, 1% Penicillin/Streptomycin in 25 cm^2 flasks at 37° C. and 5% CO2.
# For the assay in open microwells according to the present invention, Jurkat cells were labeled with Fluo-4 20 μM in HBSS, centrifuged and resuspended in serum-free medium (RPMI 1640 with 25 mM Hepes or HBSS) at a concentration of 1.6×10^6 cells/mL in 1.5 mL Eppendorf tubes used as input reservoirs for the open reversed microwell system. Subsequent to the deposition of Jurkat cells in the microwells (approximately 1-10 cells per microwell) and washing the channels with HBSS, the solutions containing Ionomycin (2 μg/mL) or OKT3 (10 μg/mL) are made to flow into specific microchannels of the open microwell system via peristaltic pump. The images were acquired by a camera connected to the microscope at a distance of 1 minute and processed by software developed in LabView, quantifying the dynamic performance of the same signal on each sample cell.
# [2] = tested on: SU-DHL-4 cancer cells; experiment: open well assay of Rituximab on SU-DHL-4 lymphoma cells (Calcein AM / PI, time-lapse); assay type: cell-based; details: Rituximab 10 μg/mL, hS 1%, PI 5 μM; images up to 60 min; versus CTRL; FIG. 11A
# Experimental: Cells: SU-DHL-4 lymphoma cells and Raji cells were used (ATCC CCL-86). 3·10^5 cells/mL were cultured in RPMI medium supplemented with 10% FBS, 1% […]/streptomycin at 37° C., 95% RH, 5% CO2. The cells were amplified, dividing them when in confluence. PBMC were isolated from blood by centrifugation in gradient. Whole blood from healthy donors was collected into tubes treated with anticoagulants according to the directive “ethical principles and guidelines for the protection of humans in research”. Isolated PBMC were washed twice with 10 mL cold HBSS after lysis of red blood cells. The concentration of cells and their viability was determined with Trypan Blue on haemocytometer. The concentration was adjusted to 1 million cells/mL.
# Different batches of SU-DHL-4 or Raji cells were harvested at the peak of their growth, washed with PBS and counted in a hemocytometer with Trypan Blue. The cell concentration was adjusted to 1 million cells/mL and they were labeled with Calcein AM (CAM) 5 nM for flow cytometry and 250 nM for the assay according to the present invention. […] Cell viability was finally assessed by PI and flow cytometry. […]
# The images were acquired brightfield (BF) to evaluate the morphological characteristics and then in fluorescence to evaluate the signal in DAPI bands (ex: 360/40 nm, 460/50 nm), FITC (ex: 480/30 nm, em: 535/40 nm), TRITC (ex: 540/25 nm, em: 605/55 nm). […]
# [3] = tested on: leukemic cell lines (KG-1, Kasumi-1 and HL-60); experiment: dose/response analysis of leukemic cell lines to idarubicin in the open reversed microwell system; assay type: cell-based; details: leukemic cell line (one of KG-1, Kasumi-1, HL-60), FIG. 9C
compound,measurement,setting,value
OKT3: monoclonal antibody purified from OKT3 hybridoma culture supernatant,increase of the signal peak compared to the baseline value,"[1]; OKT3 10 μg/mL, average of a series of 3 experiments",178%+/−90%
RTX: monoclonal antibody Rituximab,"dead cells (PI, TRITC channel) in time-lapse images",[2],present only at T2 and T3 in the RTX group
CC(=O)[C@]1(O)Cc2c(O)c3c(c(O)c2[C@@H](O[C@H]2C[C@H](N)[C@H](O)[C@H](C)O2)C1)C(=O)c1ccccc1C3=O [idarubicin],IC50,[3]; response level: resistant,0.213 µM
same,IC50,[3]; response level: sensitive on the average,0.0218 µM
same,IC50,[3]; response level: sensitive,0.0049 µM
C[C@H](CCC(=O)O)C[C@H](C)C[C@H](C)C(=O)/C=C(\O)[C@H](C)C[C@H](C)C/C=C/[C@@H](C)[C@@H](O)[C@@H](C)[C@@H](O)C[C@@H]1CC[C@@](C)([C@H]2CC[C@@](C)([C@@H](C)O)O2)O1 [Ionomycin],average increase of the signal with respect to the baseline,"[1]; Ionomycin 2 μg/mL, series of 10 experiments",193%+/−139%
